Reference: ChEMBL document CHEMBL3885861, “Open TG-GATES”

Species on record: Rattus norvegicus
Test: Open TG-GATES - Regimen: Single
Format: toxicity, organism-based, Sprague-Dawley
Design: regimen Single, gender Male, age 6 weeks
Details: in vivo, po, 0 mg/kg, route gavage, dose level Control; for APTT / Bas / Eos / Fbg / Hb / Ht / Lym / MCH / MCHC / MCV / Mono / Neu / PT / Plat / RBC / Ret / WBC: tissue Blood; for KIDNEY_L / KIDNEY_R / KIDNEY_TOTAL: tissue Kidney; for LIVER: tissue Liver; for A/G / ALP / ALT / AST / BUN / CRE / Ca / Cl / DBIL / GLC / IP / K / LDH / Na / PL / RALB / TBIL / TC / TG / TP / gamma-GTP: tissue Plasma

## CC(S)C(=O)NCC(=O)O (configuration not stated) [TIOPRONIN]
3 h
  TERMINAL_BW: 208.8 g
  APTT: 22.5 s
  Bas: 0%
  Eos: 0.8%
  Fbg: 292.4 mg/dL
  Hb: 13.1 g/dL
  Ht: 40.4%
  Lym: 81.6%
  MCH: 20.2 pg
  MCHC: 32.5%
  MCV: 62.3 fL
  Mono: 1.4%
  Neu: 15.8%
  PT: 16.1 s
  Plat: 120.4 x10_4/uL
  RBC: 649.6 x10_4/ul
  Ret: 7.5%
  WBC: 75.2 x10_2/uL
  KIDNEY_L: 0.9 g
  KIDNEY_R: 0.9 g
  KIDNEY_TOTAL: 1.8 g
  LIVER: 9.1 g
  A/G: 1.2
  ALP: 2032.2 IU/L
  ALT: 46 IU/L
  AST: 80.4 IU/L
  BUN: 11.4 mg/dL
  CRE: 0.1 mg/dL
  Ca: 10.7 mg/dL
  Cl: 107 meq/L
  DBIL: 0.002 mg/dL
  GLC: 190.8 mg/dL
  IP: 7.7 mg/dL
  K: 4.1 meq/L
  LDH: 203.8 IU/L
  Na: 143.8 meq/L
  PL: 128.6 mg/dL
  RALB: 2.9 g/dL
  TBIL: 0.02 mg/dL
  TC: 70.8 mg/dL
  TG: 65.4 mg/dL
  TP: 5.4 g/dL
  gamma-GTP: 1.8 IU/L
6 h
  TERMINAL_BW: 208.1 g
  APTT: 21.5 s
  Bas: 0%
  Eos: 0.2%
  Fbg: 295.4 mg/dL
  Hb: 13 g/dL
  Ht: 39.8%
  Lym: 83%
  MCH: 21 pg
  MCHC: 32.8%
  MCV: 64.1 fL
  Mono: 1.8%
  Neu: 14.2%
  PT: 15.8 s
  Plat: 116.3 x10_4/uL
  RBC: 621 x10_4/ul
  Ret: 8.1%
  WBC: 116.1 x10_2/uL
  KIDNEY_L: 0.9 g
  KIDNEY_R: 1 g
  KIDNEY_TOTAL: 1.9 g
  LIVER: 9 g
  A/G: 1.2
  ALP: 1487.4 IU/L
  ALT: 39 IU/L
  AST: 69.6 IU/L
  BUN: 10.6 mg/dL
  CRE: 0.1 mg/dL
  Ca: 10.5 mg/dL
  Cl: 106.4 meq/L
  DBIL: 0.002 mg/dL
  GLC: 184.2 mg/dL
  IP: 8.8 mg/dL
  K: 4.4 meq/L
  LDH: 154.4 IU/L
  Na: 143.8 meq/L
  PL: 141.4 mg/dL
  RALB: 2.9 g/dL
  TBIL: 0.022 mg/dL
  TC: 80.2 mg/dL
  TG: 72.2 mg/dL
  TP: 5.3 g/dL
  gamma-GTP: 1.6 IU/L
9 h
  TERMINAL_BW: 209.7 g
  APTT: 22.9 s
  Bas: 0%
  Eos: 0.8%
  Fbg: 294.2 mg/dL
  Hb: 12.7 g/dL
  Ht: 39.4%
  Lym: 81.6%
  MCH: 19.9 pg
  MCHC: 32.1%
  MCV: 61.7 fL
  Mono: 2%
  Neu: 15.2%
  PT: 16.2 s
  Plat: 121.4 x10_4/uL
  RBC: 639.2 x10_4/ul
  Ret: 8.3%
  WBC: 95.7 x10_2/uL
  KIDNEY_L: 0.9 g
  KIDNEY_R: 0.9 g
  KIDNEY_TOTAL: 1.9 g
  LIVER: 9.1 g
  A/G: 1.1
  ALP: 1667.4 IU/L
  ALT: 36.2 IU/L
  AST: 65.8 IU/L
  BUN: 12.2 mg/dL
  CRE: 0.1 mg/dL
  Ca: 10.5 mg/dL
  Cl: 105 meq/L
  DBIL: 0 mg/dL
  GLC: 195.8 mg/dL
  IP: 9.8 mg/dL
  K: 4.5 meq/L
  LDH: 147 IU/L
  Na: 143.8 meq/L
  PL: 120.2 mg/dL
  RALB: 2.8 g/dL
  TBIL: 0.012 mg/dL
  TC: 64.8 mg/dL
  TG: 64.2 mg/dL
  TP: 5.3 g/dL
  gamma-GTP: 1.4 IU/L
24 h
  TERMINAL_BW: 219.9 g
  APTT: 21.2 s
  Bas: 0%
  Eos: 1%
  Fbg: 307 mg/dL
  Hb: 12.9 g/dL
  Ht: 39.6%
  Lym: 77.8%
  MCH: 21.2 pg
  MCHC: 32.7%
  MCV: 64.7 fL
  Mono: 3%
  Neu: 17.4%
  PT: 16.4 s
  Plat: 115.1 x10_4/uL
  RBC: 612 x10_4/ul
  Ret: 7.6%
  WBC: 103.4 x10_2/uL
  KIDNEY_L: 1 g
  KIDNEY_R: 1 g
  KIDNEY_TOTAL: 2 g
  LIVER: 10.1 g
  A/G: 1.1
  ALP: 1636.2 IU/L
  ALT: 44 IU/L
  AST: 74.2 IU/L
  BUN: 16.6 mg/dL
  CRE: 0.2 mg/dL
  Ca: 10.7 mg/dL
  Cl: 105.6 meq/L
  DBIL: 0 mg/dL
  GLC: 196.4 mg/dL
  IP: 7.1 mg/dL
  K: 4.4 meq/L
  LDH: 179.8 IU/L
  Na: 142 meq/L
  PL: 135.2 mg/dL
  RALB: 2.8 g/dL
  TBIL: 0.004 mg/dL
  TC: 75.2 mg/dL
  TG: 76.8 mg/dL
  TP: 5.4 g/dL
  gamma-GTP: 1.4 IU/L
